pIC50: −log10 of the molar value.

One assay relates to HCT116 cells. The assay is described as follows: In vitro cytotoxicity measured by the cell colony formation assay. It is filed as cell-based. The following applies: HCT116 cells, 72 h incubation with drug, colonies counted after 7 days; ID50 = drug concentration producing 50% inhibition of colony formation; read-out: IN VITRO ID 50 (nm) HCT116. The procedure, abridged: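 Colony-forming survival was scored 7 days after a 72 h, 37 °C compound exposure followed by washout into fresh medium.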
As to `COC(=O)O[C@H]1C(=O)[C@@]2(C)C([C@H](OC(=O)c3ccccc3)[C@]3(O)C[C@H](OC(=O)[C@H](O)[C@@H](NC(=O)OC(C)(C)C)c4ccoc4)C(C)=C1C3(C)C)[C@]1(OC(C)=O)CO[C@@H]1C[C@@H]2O` (stereo partly drawn) [Compound 2032], the pIC50 was greater than 9.00.

With `CCOC(=O)O[C@H]1C[C@H]2OC[C@@]2(OC(C)=O)C2[C@H](OC(=O)c3ccccc3)[C@]3(O)C[C@H](OC(=O)[C@H](O)[C@@H](NC(=O)OC(C)(C)C)c4cccs4)C(C)=C([C@@H](O)C(=O)[C@@]21C)C3(C)C` (stereo partly drawn) [Compound 4234], the pIC50 was greater than 9.00.

For the compound `CCOC(=O)OC1C(=O)C2(C)C(O)CC3OCC3(OC(C)=O)C2C(OC(=O)c2ccccc2)C2(O)CC(OC(=O)C(O)C(NC(=O)OC(C)(C)C)c3cccs3)C(C)=C1C2(C)C` (stereo not drawn) [Compound 1755], the pIC50 is greater than 9.00.

On to `CCOC(=O)O[C@H]1C(=O)[C@@]2(C)C([C@H](OC(=O)c3ccccc3)[C@]3(O)C[C@H](OC(=O)[C@H](O)[C@@H](NC(=O)OC(C)C)c4ccco4)C(C)=C1C3(C)C)[C@]1(OC(C)=O)CO[C@@H]1C[C@@H]2O` (stereo partly drawn) [Compound 3963], for which the pIC50 was greater than 9.00.

Consider `CCOC(=O)O[C@H]1C[C@H]2OC[C@@]2(OC(C)=O)C2[C@H](OC(=O)c3ccccc3)[C@]3(O)C[C@H](OC(=O)[C@H](O)[C@@H](NC(=O)OC(C)(C)C)c4ccsc4)C(C)=C([C@@H](O)C(=O)[C@@]21C)C3(C)C` (stereo partly drawn) [Compound 4500], for which the pIC50 is greater than 9.00.

Consider `CCOC(=O)O[C@H]1C[C@H]2OC[C@@]2(OC(C)=O)C2[C@H](OC(=O)c3ccccc3)[C@]3(O)C[C@H](OC(=O)[C@H](O)[C@@H](NC(=O)c4ccccc4)c4cccs4)C(C)=C([C@@H](O)C(=O)[C@@]21C)C3(C)C` (stereo partly drawn) [Compound 4188], for which the pIC50 was greater than 8.00.

`CCOC(=O)O[C@H]1C[C@H]2OC[C@@]2(OC(C)=O)C2[C@H](OC(=O)c3ccccc3)[C@]3(O)C[C@H](OC(=O)[C@H](O)[C@@H](NC(=O)OCC(C)C)c4ccco4)C(C)=C([C@@H](O)C(=O)[C@@]21C)C3(C)C` (stereo partly drawn) [Compound 4696]: the pIC50 was greater than 9.00.

Turning to `CCOC(=O)O[C@H]1C[C@H]2OC[C@@]2(OC(C)=O)C2[C@H](OC(=O)c3ccccc3)[C@]3(O)C[C@H](OC(=O)[C@H](O)[C@H](C=C(C)C)NC(=O)OC(C)(C)C)C(C)=C([C@@H](O)C(=O)[C@@]21C)C3(C)C` (stereo partly drawn) [Compound 4524], the pIC50 was greater than 9.00.

The assay is the same for the next values; noted with them: HCT116 cells, colony formation, 72 h incubation with drug, colonies counted after 7 days; ID50 = drug concentration producing 50% inhibition of colony formation; read-out: IN VITRO ID 50 (nm) HCT116.
Regarding `CCNC(=O)O[C@H]1C(=O)[C@@]2(C)C([C@H](OC(=O)c3ccccc3)[C@]3(O)C[C@H](OC(=O)[C@H](O)[C@@H](NC(=O)OC(C)(C)C)C(C)C)C(C)=C1C3(C)C)[C@]1(OC(C)=O)CO[C@@H]1C[C@@H]2O` (stereo partly drawn) [Compound 2633], the pIC50 was greater than 8.00.

The same assay, now with this note: HCT116 colony formation; 72 h drug incubation, colonies counted after 7 days; Example 5, C-7 ester/C-10 hydroxy taxanes; read-out: IN VITRO ID 50 (nm) HCT116.
Turning to `C/C=C/C(=O)O[C@H]1C[C@H]2OC[C@@]2(OC(C)=O)C2[C@H](OC(=O)c3ccccc3)[C@]3(O)C[C@H](OC(=O)[C@H](O)[C@@H](NC(=O)OC(C)(C)C)c4cccs4)C(C)=C([C@@H](O)C(=O)[C@@]21C)C3(C)C` (stereo partly drawn) [Compound 6686], the pIC50 was greater than 9.00.

On to `CCCCC(=O)O[C@H]1C[C@H]2OC[C@@]2(OC(C)=O)C2[C@H](OC(=O)c3ccccc3)[C@]3(O)C[C@H](OC(=O)[C@H](O)[C@@H](NC(=O)OC(C)(C)CC)c4ccco4)C(C)=C([C@@H](O)C(=O)[C@@]21C)C3(C)C` (stereo partly drawn) [Compound 6343], for which the pIC50 is greater than 8.00.

For `CCCC(=O)N[C@@H](c1ccco1)[C@@H](O)C(=O)O[C@H]1C[C@@]2(O)[C@@H](OC(=O)c3ccccc3)C3[C@](C)(C(=O)[C@H](O)C(=C1C)C2(C)C)[C@@H](OC(=O)CC)C[C@H]1OC[C@@]31OC(C)=O` (stereo partly drawn) [Compound 3171], the pIC50 is greater than 9.00.

As for `CCCC(=O)O[C@H]1C[C@H]2OC[C@@]2(OC(C)=O)C2[C@H](OC(=O)c3ccccc3)[C@]3(O)C[C@H](OC(=O)[C@H](O)[C@@H](NC(=O)OC(C)(C)CC)c4ccco4)C(C)=C([C@@H](O)C(=O)[C@@]21C)C3(C)C` (stereo partly drawn) [Compound 6272], the pIC50 was greater than 9.00.

Consider `CCC(=O)O[C@H]1C[C@H]2OC[C@@]2(OC(C)=O)C2[C@H](OC(=O)c3ccccc3)[C@]3(O)C[C@H](OC(=O)[C@H](O)[C@@H](NC(=O)c4ccccc4)c4ccco4)C(C)=C([C@@H](O)C(=O)[C@@]21C)C3(C)C` (stereo partly drawn) [Compound 4017], for which the pIC50 was greater than 8.00.

As for `CCC(C)(C)OC(=O)N[C@@H](c1ccco1)[C@@H](O)C(=O)O[C@H]1C[C@@]2(O)[C@@H](OC(=O)c3ccccc3)C3[C@](C)(C(=O)[C@H](O)C(=C1C)C2(C)C)[C@@H](OC(=O)CC(C)C)C[C@H]1OC[C@@]31OC(C)=O` (stereo partly drawn) [Compound 6282], the pIC50 is greater than 8.00.

In the case of `CCC(=O)O[C@H]1C[C@H]2OC[C@@]2(OC(C)=O)C2[C@H](OC(=O)c3ccccc3)[C@]3(O)C[C@H](OC(=O)[C@H](O)[C@@H](NC(=O)c4ccco4)c4ccco4)C(C)=C([C@@H](O)C(=O)[C@@]21C)C3(C)C` (stereo partly drawn) [Compound 3629], the pIC50 is greater than 9.00.

Regarding `CCC(=O)O[C@H]1C[C@H]2OC[C@@]2(OC(C)=O)C2[C@H](OC(=O)c3ccccc3)[C@]3(O)C[C@H](OC(=O)[C@H](O)[C@@H](NC(=O)c4ccco4)c4cccs4)C(C)=C([C@@H](O)C(=O)[C@@]21C)C3(C)C` (stereo partly drawn) [Compound 3069], the pIC50 was greater than 9.00.

In the case of `CCC(=O)O[C@H]1C[C@H]2OC[C@@]2(OC(C)=O)C2[C@H](OC(=O)c3ccccc3)[C@]3(O)C[C@H](OC(=O)[C@H](O)[C@@H](NC(=O)c4ccccc4)c4ccsc4)C(C)=C([C@@H](O)C(=O)[C@@]21C)C3(C)C` (stereo partly drawn) [Compound 3388], the pIC50 is greater than 8.00.

Take `CCCC(=O)O[C@H]1C[C@H]2OC[C@@]2(OC(C)=O)C2[C@H](OC(=O)c3ccccc3)[C@]3(O)C[C@H](OC(=O)[C@H](O)[C@@H](NC(=O)C=C(C)C)c4cccs4)C(C)=C([C@@H](O)C(=O)[C@@]21C)C3(C)C` (stereo partly drawn) [Compound 4283]: the pIC50 is greater than 9.00.

Staying with this assay, now noted: HCT116 colony formation; 72 h drug incubation, colonies counted after 7 days; Example 10, C-10 ester/C-7 hydroxy taxanes; read-out: IN VITRO ID 50 (nm) HCT116.
With `CC(=O)O[C@@]12CO[C@@H]1C[C@H](O)[C@@]1(C)C(=O)[C@H](OC(=O)C(C)C)C3=C(C)[C@@H](OC(=O)[C@H](O)[C@@H](NC(=O)OC(C)(C)C)c4cccnc4)C[C@@](O)([C@@H](OC(=O)c4ccccc4)C12)C3(C)C` (stereo partly drawn) [Compound 2242], the pIC50 is greater than 8.00.

Take `CC(=O)O[C@@]12CO[C@@H]1C[C@H](O)[C@@]1(C)C(=O)[C@H](OC(=O)C3CC3)C3=C(C)[C@@H](OC(=O)[C@H](O)[C@@H](NC(=O)c4ccccc4)C4CC4)C[C@@](O)([C@@H](OC(=O)c4ccccc4)C12)C3(C)C` (stereo partly drawn) [Compound 0923]: the pIC50 is greater than 9.00.

As for `CCCC(=O)O[C@H]1C(=O)[C@@]2(C)C([C@H](OC(=O)c3ccccc3)[C@]3(O)C[C@H](OC(=O)[C@H](O)[C@@H](NC(=O)OC(C)(C)C)c4ccsc4)C(C)=C1C3(C)C)[C@]1(OC(C)=O)CO[C@@H]1C[C@@H]2O` (stereo partly drawn) [Compound 1011], the pIC50 was greater than 9.00.

Turning to `CCC(=O)O[C@H]1C(=O)[C@@]2(C)C([C@H](OC(=O)c3ccccc3)[C@]3(O)C[C@H](OC(=O)[C@H](O)[C@@H](NC(=O)OC(C)C)c4ccco4)C(C)=C1C3(C)C)[C@]1(OC(C)=O)CO[C@@H]1C[C@@H]2O` (stereo partly drawn) [Compound 3522], the pIC50 was greater than 9.00.

In the case of `C/C=C/C(=O)O[C@H]1C(=O)[C@@]2(C)C([C@H](OC(=O)c3ccccc3)[C@]3(O)C[C@H](OC(=O)[C@H](O)[C@@H](NC(=O)OC(C)(C)C)c4ccoc4)C(C)=C1C3(C)C)[C@]1(OC(C)=O)CO[C@@H]1C[C@@H]2O` (stereo partly drawn) [Compound 2380], the pIC50 is greater than 9.00.

`CCCC(=O)OC1C(=O)C2(C)C(O)CC3OCC3(OC(C)=O)C2C(OC(=O)c2ccccc2)C2(O)CC(OC(=O)C(O)C(NC(=O)OC(C)(C)C)C3CCC3)C(C)=C1C2(C)C` (stereo not drawn) [Compound 1044]: the pIC50 is greater than 9.00.

Consider `CCC(=O)O[C@H]1C(=O)[C@@]2(C)C([C@H](OC(=O)c3ccccc3)[C@]3(O)C[C@H](OC(=O)[C@H](O)[C@@H](NC(=O)c4ccccc4)c4ccco4)C(C)=C1C3(C)C)[C@]1(OC(C)=O)CO[C@@H]1C[C@@H]2O` (stereo partly drawn) [Compound 0663], for which the pIC50 was greater than 9.00.

Regarding `CCC(=O)O[C@H]1C(=O)[C@@]2(C)C([C@H](OC(=O)c3ccccc3)[C@]3(O)C[C@H](OC(=O)[C@H](O)[C@@H](NC(=O)OC(C)(C)C)C4CC4)C(C)=C1C3(C)C)[C@]1(OC(C)=O)CO[C@@H]1C[C@@H]2O` (stereo partly drawn) [Compound 0578], the pIC50 is greater than 9.00.

With `CCCC(=O)O[C@H]1C(=O)[C@@]2(C)C([C@H](OC(=O)c3ccccc3)[C@]3(O)C[C@H](OC(=O)[C@H](O)[C@@H](NC(=O)c4ccccc4)c4ccco4)C(C)=C1C3(C)C)[C@]1(OC(C)=O)CO[C@@H]1C[C@@H]2O` (stereo partly drawn) [Compound 3204], the pIC50 is greater than 9.00.

As for `CCC(=O)O[C@H]1C(=O)[C@@]2(C)C([C@H](OC(=O)c3ccccc3)[C@]3(O)C[C@H](OC(=O)[C@H](O)[C@@H](NC(=O)OC(C)(C)C)c4ccc([N+](=O)[O-])cc4)C(C)=C1C3(C)C)[C@]1(OC(C)=O)CO[C@@H]1C[C@@H]2O` (stereo partly drawn) [Compound 0602], the pIC50 was greater than 9.00.

Regarding `CC(=O)OC12COC1CC(O)C1(C)C(=O)C(OC(=O)c3cccs3)C3=C(C)C(OC(=O)C(O)C(NC(=O)OC(C)(C)C)C(C)C)CC(O)(C(OC(=O)c4ccccc4)C21)C3(C)C` (stereo not drawn) [Compound 1964], the pIC50 is greater than 8.00.

As for `CCC(=O)O[C@H]1C(=O)[C@@]2(C)C([C@H](OC(=O)c3ccccc3)[C@]3(O)C[C@H](OC(=O)[C@H](O)[C@@H](NC(=O)c4cccs4)c4cccs4)C(C)=C1C3(C)C)[C@]1(OC(C)=O)CO[C@@H]1C[C@@H]2O` (stereo partly drawn) [Compound 3425], the pIC50 is greater than 9.00.

Turning to `CCOC(=O)N[C@@H](c1ccco1)[C@@H](O)C(=O)O[C@H]1C[C@@]2(O)[C@@H](OC(=O)c3ccccc3)C3[C@](C)(C(=O)[C@H](OC(=O)CC)C(=C1C)C2(C)C)[C@@H](O)C[C@H]1OC[C@@]31OC(C)=O` (stereo partly drawn) [Compound 3535], the pIC50 was greater than 9.00.

As to `CC(=O)O[C@@]12CO[C@@H]1C[C@H](O)[C@@]1(C)C(=O)[C@H](OC(=O)C3CC3)C3=C(C)[C@@H](OC(=O)[C@H](O)[C@@H](NC(=O)OC(C)(C)C)c4ccccn4)C[C@@](O)([C@@H](OC(=O)c4ccccc4)C12)C3(C)C` (stereo partly drawn) [Compound 2802], the pIC50 is greater than 9.00.

The record behind these values is patent publication US6638973B2, “Taxane formulations” (FSU Research Foundation, Inc., priority 2000, dated 2003).
